The results in this text go back to patent US20240074473A1, “METHOD FOR INDUCING HYPERTROPHIC MUSCLE FIBERS FOR INDUSTRIAL MEAT PRODUCTION” (Yeda Research and Development Co. Ltd., priority 2021, published 2024).

Assay [1] deals with ovine myoblasts. The experiment in a line: Live imaging of fusion in ovine myoblasts. The settings on record: sheep derived myoblasts, 1 μM. The assay is classed as cell-based. On the procedure:
Bovine myoblasts were seeded in equal number in 96-well plates and the following day treated either with PM, PM supplemented with 0.5 uM SCH 772984 (ERKi) or differentiation media (DM). Media was replenished daily either with fresh PM or DM (ERKi was not added again). At 72 hours post treatment, cells were fixed and stained for myosin heavy chain, and several fields per condition were imaged. Nuclei per fiber was quantified per field to result in a fusion index. For ovine myoblasts—equal number of cells were seeded in an 8 well chamber slide for 24 hours. The following day cells were treated with either with 1 uM SCH 772984 (ERKi) or differentiation media (DM), supplemented with 100 nM of Sir-Actin reagent, then incubated for 4 hours and then the slide was transferred to a heated and CO2 chambered microscope unit. Several fields of view were selected and live imaging was performed by capturing images of each field every 7 minutes. The series of images for each treatment over a period of 31 hours was stacked into a movie file using ImageJ.

Assay [2] concerns primary mouse myoblasts. The experiment in a line: Proliferation markers KI-67 and pH3 staining in primary mouse myoblasts. The assay is classed as cell-based. To be noted: 1 μM ERKi, 24 hours. On the procedure:
Immunofluorescence staining. First passage primary myoblasts isolated from various strains (indicated in figure legends) were plated in 96-well plates or chamber slides and treated as previously described. The cells were fixed with ice cold 4% PFA in PBS for 10 minutes, permeabilized with 0.5% Triton X-100 in PBS for 6 minutes, and blocked in PBS with 0.025% tween, 10% normal horse serum and 10% normal goat serum for 1 hour at room temperature. Primary antibody incubation was done in blocking buffer overnight at 4 degrees, with the following antibodies: Myosin Heavy Chain (MyHC, MF20, DSHB hybridoma supernatant 1:10, or MY-32 ABCAM ab51263 1:400), Myogenin (MYOG sc-13137 SCBT 1:200), pHistone 3 (PH3, ab47297 ABCAM 1:1000), Ki-67 (Cell Marque #275R), RYR (ab2868 ABCAM 1:100), and pCaMKII (SIGMA SAB4504356 1:100). Cells were washed 3 times in PBS with 0.025% tween and then incubated with appropriate secondary antibodies in PBS 1 hour. Where indicated, nuclei were either labeled with DAPI (SIGMA D9542, 5 ug/ml) or Hoechst 33342 (Thermo scientific #62249, 1:2000). Fixed cells at 24 hours post treatment with indicated inhibitors were imaged using the Nikon Eclipse Ti2 microscope (further described in microscopy section). All analysis was performed on at least 1000 nuclei. […]

In assay [3] the test system is CaMKII. The experiment in a line: Western blot of CaMKII activation (p-CaMKII T287) in myoblasts. The assay is classed as cell-based, mouse. On the procedure:
Western Blot analysis. Cultured cells and whole tissues extracts were prepared with RIPA buffer supplemented with protease inhibitor cocktail (SIGMA P8340), and phosphatase inhibitor cocktails (SIGMA P5726 and P0044). Western blotting was performed using the Mini-PROTEAN Tetra Cell electrophoresis system, and transferred to PVDF membranes. The following primary antibodies concentrations were used p-CAMKII 1:1000 (Abcam ab182647), CaMKII 1:1000 (Cell Signaling 3362), GAPDH 1:10,000 (Abcam ab181602), p-ERK1/2 1:20,000 (SIGMA M9692), ERK1/2 1:40,000 (SIGMA), Myosin Heavy Chain (MF-20 DSHB hybridoma supernatant 1:100) Horseradish peroxidase conjugated secondary anti-mouse, anti-rabbit or anti-goat was used to detect proteins (Jackson Immunology). Western blots were imaged using the Chemidoc Multiplex system (Bio-rad).
In general terms: In western blotting, separated proteins are transferred to a membrane and probed.

Assay [4] relates to primary chicken myoblasts. Briefly: Fusion index of primary chicken myoblasts (MyHC immunostaining). The assay is classed as cell-based. The settings on record: for Fusion: 48 hours post treatment. As for the experimental part: Chicken primary derived myoblasts were used as a model to evaluate the efficiency of SCH772984 as the ERKi, compared to conventional differentiation medium (DM) for the purpose of producing muscle (meat) in tissue culture conditions. Chicken myoblasts were isolated from chicken embryos and expanded in proliferation medium. When sufficient cell numbers were acquired, cells were seeded on tissue culture plates and allowed to adhere for 24 hours. Then medium was changed to either PM supplemented with ERKi or DM. At 24-hours post treatment, the cells that received ERKi were replenished with fresh PM (without the addition of more ERKi), and DM treated cells were replenished with fresh DM. Media was replaced daily over a period of 72 hours.
Evaluation of muscle fiber formation was achieved by fixing the cells and staining for expression of Myosin Heavy Chain (FIG. 9A). […] Yet, treatment with conventional DM only began to form fibers beginning at 72-hours post treatment. A fusion index was quantified at 72 hours post treatment (FIG. 9B), in which the percentage of total nuclei present in a myotube (MyHC positive cell with 2 or more nuclei).
Primary chicken myoblast isolation and treatment: chicken myoblasts were isolated from broiler chicken embryos at day 18 from breast and leg muscles by using Trypsin B. Following tissue dissociation, the cell suspension was grown for 3-4 days on 10% Matrigel coated plates. At the first passage, the cells were lifted and pre-plated twice for 30 minutes to enrich for myoblasts and reduce the number of fibroblasts. Then cells were seeded at 8,000/well of optical-96 well plates in proliferation medium. 24 hours after plating, media was aspirated and replaced with the indicated treatment conditions in proliferation media or differentiation media (as indicated). After 24 hours with treatment, the media was aspirated and all wells were replenished with fresh proliferation media or differentiation media without any treatment. This was repeated daily. Cells were fixed at 48 hours after treatment. Compounds were purchased from Cayman Chemicals.
Immunofluorescent staining: Cells were fixed with ice cold 4% PFA in PBS for 10 minutes, permeabilized with 0.5% Triton X-100 in PBS for 6 minutes, and blocked in PBS with 0.025% tween, 10% normal horse serum and 10% normal goat serum for 1 hour at room temperature. Primary antibody incubation was done in blocking buffer overnight at 4 degrees, with the following antibodies: Myosin Heavy Chain (MyHC, MF20, DSHB hybridoma supernatant 1:10, alpha-actinin (SIGMA A7811). Cells were washed 3 times in PBS with 0.025% tween and then incubated with appropriate secondary antibodies in PBS 1 hour. Nuclei were labeled with DAPI (SIGMA D9542, 5 ug/ml). All fusion indexes and imaging analysis were performed on at least 1000 per technical repeat.

Some results are limits rather than exact numbers.

For `O=C(Nc1ccc2[nH]nc(-c3ccncc3)c2c1)[C@@H]1CCN(CC(=O)N2CCN(c3ccc(-c4ncccn4)cc3)CC2)C1` [SCH772984], the “Fusion and myotube formation compared to DM” value in assay [1] is “significantly more fusion and myotube formation”. Also, the “Cell cycle (KI-67 and phosphorylated Histone 3 staining)” value in assay [2] is “undergo cell-cycle arrest”. Further, the “Time of CaMKII activation post ERKi treatment” value in assay [3] (1 μM ERKi time-course) was no more than 16 h. In assay [3] (treatment of myoblasts with ERKi, 24 hours), the “CaMKII activation (p-CaMKII T287)” value was “activated”. For the same compound, the “Muscle fibers begin to form earlier than with DM” value in assay [4] (chicken myoblasts) turned out to be 48 h. Moreover, the “Increase in fusion index compared to DM” value in assay [4] (chicken myoblasts, 72 hours post treatment) is roughly 4 fold. For the same compound, the “Fusion index (percentage of total nuclei in MyHC positive cell with 2 or more nuclei)” value in assay [4] (chicken myoblasts, 72 hours post treatment, ERKi in PM vs DM) stood at 62%. Also, the “Time at which myotubes/fibers begin to form” value in assay [4] (chicken myoblasts, post treatment) was no more than 24 h. The Fusion in assay [4] (primary chicken myoblasts, Differentiation media, 1 uM) came out at 46%; in assay [4] (primary chicken myoblasts, Differentiation media, 10 uM), 61%; in assay [4] (primary chicken myoblasts, Proliferation media, 1 uM), 59%; in assay [4] (primary chicken myoblasts, Proliferation media, 10 uM), 69%. The compound also showed a Fusion index in assay [4] (primary chicken myoblasts, proliferation medium, ERKi treatment alone (SCH772984 1 uM), 48 hours) of 62%.
